In publication PMC7818428, “Potential Dental Biofilm Inhibitors: Dynamic Combinatorial Chemistry Affords Sugar‐Based Molecules that Target Bacterial Glucosyltransferase” (Chemmedchem, 2020):

Molecular target: T1, GTF180-ΔN (GTF180) (Limosilactobacillus reuteri, UniProt Q5SBN3)
T1 construct: N-terminally truncated GTF180-ΔN (catalytic and C-terminal domains), 117 kDa
Test: UPLC-MS of dynamic combinatorial library (cleavage to A1H8)
Format: biochemical
Details: 30 μM protein, mixture of library members with 10 mM aniline, pH 5.2, 10 % DMSO, room temperature

T1 sequence (Q5SBN3 entry or part of it, stated change not applied): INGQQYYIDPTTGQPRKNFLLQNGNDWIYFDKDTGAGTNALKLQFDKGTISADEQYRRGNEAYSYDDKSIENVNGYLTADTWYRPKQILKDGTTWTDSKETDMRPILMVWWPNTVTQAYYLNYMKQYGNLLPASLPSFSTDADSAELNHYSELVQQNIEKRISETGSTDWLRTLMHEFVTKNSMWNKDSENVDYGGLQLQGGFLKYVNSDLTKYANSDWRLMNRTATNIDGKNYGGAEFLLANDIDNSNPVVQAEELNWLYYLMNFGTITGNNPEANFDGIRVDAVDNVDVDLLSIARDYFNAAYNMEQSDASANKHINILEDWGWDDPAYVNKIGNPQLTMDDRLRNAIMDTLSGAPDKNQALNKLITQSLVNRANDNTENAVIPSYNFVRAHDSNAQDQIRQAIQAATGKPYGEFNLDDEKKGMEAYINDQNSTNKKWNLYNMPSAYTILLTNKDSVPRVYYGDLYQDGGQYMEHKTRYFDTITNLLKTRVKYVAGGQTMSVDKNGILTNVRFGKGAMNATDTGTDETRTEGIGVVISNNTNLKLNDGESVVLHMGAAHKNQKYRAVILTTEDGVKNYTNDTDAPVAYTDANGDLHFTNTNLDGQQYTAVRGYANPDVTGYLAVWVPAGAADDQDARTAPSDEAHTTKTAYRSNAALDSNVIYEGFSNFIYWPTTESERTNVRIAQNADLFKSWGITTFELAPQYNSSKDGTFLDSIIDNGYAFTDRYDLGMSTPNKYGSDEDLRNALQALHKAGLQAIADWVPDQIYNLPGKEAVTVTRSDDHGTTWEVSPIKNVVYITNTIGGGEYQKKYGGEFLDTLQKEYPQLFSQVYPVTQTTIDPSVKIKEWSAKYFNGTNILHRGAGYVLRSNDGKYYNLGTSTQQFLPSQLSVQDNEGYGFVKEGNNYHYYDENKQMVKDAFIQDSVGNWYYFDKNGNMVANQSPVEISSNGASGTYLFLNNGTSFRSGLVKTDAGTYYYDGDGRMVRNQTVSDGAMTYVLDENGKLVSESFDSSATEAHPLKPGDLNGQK

O=C(CC1CCCC1)N/N=C/c1ccc(O[C@@H]2O[C@H](CO)[C@@H](O[C@H]3O[C@H](CO)[C@@H](O)[C@H](O)[C@H]3O)[C@H](O)[C@H]2O)cc1 [A2H8]
UPLC-MS of dynamic combinatorial library (cleavage to A1H8): maltose‐derived acylhydrazones A2H2 and A2H8 with a lipophilic
